# Tests used:
# Assay type in all cases: in vivo
# [1] = system: Alopecurus myosuroides (ALOMY); assay: Example A pre-emergence herbicidal test, glasshouse; conditions: rate 250 g/ha, evaluated after 20 days, 100=total damage to plant, 0=no damage to plant
# Protocol: (§1) Seeds of a variety of test species were sown in standard soil in pots. After cultivation for one day (pre-emergence) or after 10 days cultivation (post-emergence) under controlled conditions in a glasshouse, the plants were sprayed with an aqueous spray solution derived from the formulation of the technical active ingredient in 0.6 ml acetone and 45 ml formulation solution containing 10.6% Emulsogen EL (Registry number 61791-12-6), 42.2% N-methylpyrrolidone, 42.2% dipropylene glycol monomethyl ether (Registry number 34590-94-8) and 0.2% X-77 (Registry number 11097-66-8). The test plants were then grown in a greenhouse under optimum conditions until, 14 or 15 days later for post-emergence and 20 days for pre-emergence, the test was evaluated (100=total damage to plant; 0=no damage to plant). Test Plants: Alopecurus myosuroides (ALOMY), Avena fatua (AVEFA), Lolium perenne (LOLPE), Setaria faberi (SETFA), Digitaria sanguinalis (DIGSA), Echinochloa crus-galli (ECHCG)
# [2] = system: Avena fatua (AVEFA); assay: as above; conditions: rate 250 g/ha, evaluated after 20 days, 100=total damage to plant, 0=no damage to plant
# Protocol: as §1
# [3] = system: Digitaria sanguinalis (DIGSA); assay: as above; conditions: rate 250 g/ha, evaluated after 20 days, 100=total damage to plant, 0=no damage to plant
# Protocol: as §1
# [4] = system: Echinochloa crus-galli (ECHCG); assay: as above; conditions: rate 250 g/ha, evaluated after 20 days, 100=total damage to plant, 0=no damage to plant
# Protocol: as §1
# [5] = system: Lolium perenne (LOLPE); assay: as above; conditions: rate 250 g/ha, evaluated after 20 days, 100=total damage to plant, 0=no damage to plant
# Protocol: as §1
# [6] = system: Setaria faberi (SETFA); assay: as above; conditions: rate 250 g/ha, evaluated after 20 days, 100=total damage to plant, 0=no damage to plant
# Protocol: as §1
# [7] = system: Alopecurus myosuroides (ALOMY); assay: Example A post-emergence herbicidal test, glasshouse; conditions: rate 125 g/ha, evaluated 14 or 15 days later, 100=total damage to plant, 0=no damage to plant
# Protocol: as §1
# [8] = system: Avena fatua (AVEFA); assay: as above; conditions: rate 125 g/ha, evaluated 14 or 15 days later, 100=total damage to plant, 0=no damage to plant
# Protocol: as §1
# [9] = system: Digitaria sanguinalis (DIGSA); assay: as above; conditions: rate 125 g/ha, evaluated 14 or 15 days later, 100=total damage to plant, 0=no damage to plant
# Protocol: as §1
# [10] = system: Echinochloa crus-galli (ECHCG); assay: as above; conditions: rate 125 g/ha, evaluated 14 or 15 days later, 100=total damage to plant, 0=no damage to plant
# Protocol: as §1
# [11] = system: Lolium perenne (LOLPE); assay: as above; conditions: rate 125 g/ha, evaluated 14 or 15 days later, 100=total damage to plant, 0=no damage to plant
# Protocol: as §1
# [12] = system: Setaria faberi (SETFA); assay: as above; conditions: rate 125 g/ha, evaluated 14 or 15 days later, 100=total damage to plant, 0=no damage to plant
# Protocol: as §1
# [13] = system: Alopecurus myosuroides (ALOMY); assay: Example B post-emergence herbicidal test, glasshouse; conditions: 312 h, rate 1000 g/ha, evaluated after 13 days, read-out: Post-Emergence Activity ALOMY (100=total damage to plant; 0=no damage to plant)
# In short: (§2)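 Damage scored visually on a 0–100 scale (100 = total damage) 13 days after spraying. Pots of soil-sown plants were treated either one day after sowing or after 8 days of cultivation; spray was an aqueous dilution of an acetone/water 50:50 formulation with 0.5% Tween 20.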
# [14] = system: Amaranthus retoflexus (AMARE); assay: as above; conditions: Amaranthus retroflexus, 312 h, rate 1000 g/ha, evaluated after 13 days, read-out: Post-Emergence Activity AMARE (100=total damage to plant; 0=no damage to plant)
# In short: as §2
# [15] = system: Avena fatua (AVEFA); assay: as above; conditions: 312 h, rate 1000 g/ha, evaluated after 13 days, read-out: Post-Emergence Activity AVEFA (100=total damage to plant; 0=no damage to plant)
# In short: as §2
# [16] = system: Echinochloa crus-galli (ECHCG); assay: as above; conditions: 312 h, rate 1000 g/ha, evaluated after 13 days, read-out: Post-Emergence Activity ECHCG (100=total damage to plant; 0=no damage to plant)
# In short: as §2
# [17] = system: Setaria faberi (SETFA); assay: as above; conditions: 312 h, rate 1000 g/ha, evaluated after 13 days, read-out: Post-Emergence Activity SETFA (100=total damage to plant; 0=no damage to plant)
# In short: as §2
# [18] = system: Solanum nigrum (SOLNI); assay: as above; conditions: 312 h, rate 1000 g/ha, evaluated after 13 days, read-out: Post-Emergence Activity SOLNI (100=total damage to plant; 0=no damage to plant)
# In short: as §2
Structure (SMILES),Pre-Emergence Activity ALOMY [1],Pre-Emergence Activity AVEFA [2],Pre-Emergence Activity DIGSA [3],Pre-Emergence Activity ECHCG [4],Pre-Emergence Activity LOLPE [5],Pre-Emergence Activity SETFA [6],Post-Emergence Activity ALOMY [7],Post-Emergence Activity AVEFA [8],Post-Emergence Activity DIGSA [9],Post-Emergence Activity ECHCG [10],Post-Emergence Activity LOLPE [11],Post-Emergence Activity SETFA [12],pest or weed control at 1000 g/ha [13] [%],pest or weed control at 1000 g/ha [14] [%],pest or weed control at 1000 g/ha [15] [%],pest or weed control at 1000 g/ha [16] [%],pest or weed control at 1000 g/ha [17] [%],pest or weed control at 1000 g/ha [18] [%]
Cc1sc(-c2ccc(Cl)cc2)nc1C1C(=O)C(C)(C)OC(C)(C)C1=O [Compound T13],100,50,100,100,100,100,90,80,100,100,70,100,–,–,–,–,–,–
Cc1sc(-c2ccc(Cl)cc2)cc1C1C(=O)C(C)(C)OC(C)(C)C1=O [Compound T12],30,0,20,40,0,0,80,70,90,100,70,80,–,–,–,–,–,–
CCc1sc(-c2ccc(Cl)cc2)nc1C1C(=O)C(C)(C)C(=O)C(C)(C)C1=O [Compound T6],50,20,70,50,80,60,70,60,70,70,30,70,90,0,90,90,100,0
"CCc1sc(-c2ccc(Cl)cc2)nc1C1C(=O)C(C)(C)OC(C)(C)C1=O [Compound T11, 4-[2-(4-chlorophenyl)-5-ethylthiazol-4-yl]-2,2,6,6-tetramethylpyran-3,5-dione]",100,100,100,100,100,100,90,80,100,100,60,100,–,–,–,–,–,–
"Cc1[se]c(-c2ccc(Cl)cc2)nc1C1C(=O)C(C)(C)OC(C)(C)C1=O [Compound T16, 5-[2-(4-chlorophenyl)-5-methylselenazol-4-yl]-2,2,6,6-tetramethylpyran-3,5-dione]",90,50,100,60,100,0,70,70,90,100,60,90,–,–,–,–,–,–
